From ChEMBL document CHEMBL1128763, “Synthesis of 2-substituted d-tryptophan-containing peptide derivatives with endothelin receptor antagonist activity” (Bioorg Med Chem Lett, 1995) come the findings set out here.

The term IC50 denotes the midpoint of a concentration-inhibition curve. High values mean a need for much substance, low ones inhibition by little substance.

The structures appear in SMILES notation.

Assay [1] has as its target T1, Endothelin receptor type B (Homo sapiens, UniProt P24530).
T1 sequence (P24530 whole entry): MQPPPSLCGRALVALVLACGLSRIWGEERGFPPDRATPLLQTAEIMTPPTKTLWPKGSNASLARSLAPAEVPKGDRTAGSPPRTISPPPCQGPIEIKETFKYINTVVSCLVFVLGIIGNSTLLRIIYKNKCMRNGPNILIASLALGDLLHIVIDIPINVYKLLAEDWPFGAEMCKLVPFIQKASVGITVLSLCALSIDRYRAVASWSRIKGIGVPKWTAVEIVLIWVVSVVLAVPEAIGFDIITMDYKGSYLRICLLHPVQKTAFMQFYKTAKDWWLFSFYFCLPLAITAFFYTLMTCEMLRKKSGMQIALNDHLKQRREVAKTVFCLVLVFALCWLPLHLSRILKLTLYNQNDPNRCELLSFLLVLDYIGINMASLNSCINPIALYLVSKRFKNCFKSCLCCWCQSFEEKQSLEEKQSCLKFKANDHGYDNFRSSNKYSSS
The assay is described as follows: Functional inhibition of ET-1 induced [Ca2+] increase in human Girardi heart (hGH) cells, which express Endothelin B receptor.

Assay [2] concerns the target T2, Endothelin-1 receptor (Homo sapiens, UniProt P25101).
T2 sequence (P25101 whole entry): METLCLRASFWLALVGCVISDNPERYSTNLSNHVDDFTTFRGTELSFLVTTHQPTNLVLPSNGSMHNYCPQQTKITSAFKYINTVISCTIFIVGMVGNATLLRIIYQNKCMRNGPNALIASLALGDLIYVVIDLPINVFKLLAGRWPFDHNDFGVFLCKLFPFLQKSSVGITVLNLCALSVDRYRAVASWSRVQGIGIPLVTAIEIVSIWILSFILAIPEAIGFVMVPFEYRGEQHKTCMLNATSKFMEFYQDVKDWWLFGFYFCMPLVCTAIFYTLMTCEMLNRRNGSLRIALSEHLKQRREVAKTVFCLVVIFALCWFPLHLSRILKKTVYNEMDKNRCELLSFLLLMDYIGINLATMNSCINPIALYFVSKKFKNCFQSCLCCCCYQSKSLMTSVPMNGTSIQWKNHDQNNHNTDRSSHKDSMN
The assay is described as follows: Functional inhibition of ET-1 induced [Ca2+] increase in human neuroblastoma-derived SK-N-MC cells, which express Endothelin A receptor. It is filed as cell-based.

Assay [3] concerns the target T3, Endothelin receptor type B (Sus scrofa, UniProt P35463).
T3 sequence (P35463 whole entry): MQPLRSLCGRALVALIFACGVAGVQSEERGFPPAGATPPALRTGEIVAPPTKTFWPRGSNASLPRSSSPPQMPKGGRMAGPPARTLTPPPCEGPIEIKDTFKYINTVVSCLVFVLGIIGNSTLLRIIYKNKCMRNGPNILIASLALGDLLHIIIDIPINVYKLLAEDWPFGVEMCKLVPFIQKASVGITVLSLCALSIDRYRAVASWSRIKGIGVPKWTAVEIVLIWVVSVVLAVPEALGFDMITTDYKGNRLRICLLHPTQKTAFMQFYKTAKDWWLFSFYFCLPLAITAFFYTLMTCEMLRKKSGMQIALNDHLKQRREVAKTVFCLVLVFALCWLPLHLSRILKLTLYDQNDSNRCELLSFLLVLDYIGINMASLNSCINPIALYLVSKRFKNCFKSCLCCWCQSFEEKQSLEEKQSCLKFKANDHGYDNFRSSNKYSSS
Description: Inhibitory activity against 125 I-labeled ET-1 binding to Endothelin B receptor in porcine cerebellum membranes. It is filed as cell membranes, Membrane.

Assay [4] deals with T4, Endothelin-1 receptor (Sus scrofa, UniProt Q29010).
T4 sequence (Q29010 whole entry): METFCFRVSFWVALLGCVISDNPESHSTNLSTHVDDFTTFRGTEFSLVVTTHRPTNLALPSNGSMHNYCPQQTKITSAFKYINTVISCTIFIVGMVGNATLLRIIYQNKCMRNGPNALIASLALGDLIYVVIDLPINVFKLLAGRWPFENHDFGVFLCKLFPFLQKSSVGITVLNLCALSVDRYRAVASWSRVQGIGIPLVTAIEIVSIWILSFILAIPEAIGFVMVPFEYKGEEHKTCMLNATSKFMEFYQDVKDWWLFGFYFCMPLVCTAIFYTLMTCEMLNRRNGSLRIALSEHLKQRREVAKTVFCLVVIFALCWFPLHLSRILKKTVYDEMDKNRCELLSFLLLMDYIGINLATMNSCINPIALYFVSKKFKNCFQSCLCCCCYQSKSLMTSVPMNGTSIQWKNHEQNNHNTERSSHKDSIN
The assay is described as follows: Inhibitory activity against 125 I-labeled ET-1 binding to Endothelin A receptor in porcine aortic smooth muscle membranes.

Regarding `CCCC[C@@H](NC(=O)[C@@H](Cc1c(Br)[nH]c2ccccc12)NC(=O)[C@@H](NC(=O)N1[C@H](C)CCC[C@@H]1C)C1CC1)C(=O)O`, the IC50 amounted to 0.8 nM in assay [1] and 16 nM against Endothelin-1 receptor [2].
As to `CCCC[C@@H](NC(=O)[C@@H](Cc1cn(C(=O)OC)c2ccccc12)NC(=O)[C@H](CC(C)(C)C)NC(=O)N1[C@H](C)CCC[C@@H]1C)C(=O)O`, the IC50 in assay [3] amounted to 1.2 nM; at Endothelin-1 receptor [4], 280 nM.
Turning to `CCCC[C@@H](NC(=O)[C@@H](Cc1c(C#N)[nH]c2ccccc12)NC(=O)[C@@H](NC(=O)N1[C@H](C)CCC[C@@H]1C)C(C)C)C(=O)O`, the IC50 came out at 4 nM in assay [1] and 6100 nM against Endothelin-1 receptor [2].
At Endothelin-1 receptor [4], `CC(C)C[C@@H]1NC(=O)[C@@H](C(C)C)NC(=O)C2CCCN2C(=O)[C@@H](CC(=O)O)NC(=O)[C@@H](Cc2c[nH]c3ccccc23)NC1=O` (single isomer, unassigned) [BQ-123] showed an IC50 of 22 nM. In other words, the double-digit nanomolar range.
